{"source": "ChEMBL document CHEMBL1156394", "about": "“Low-density lipoprotein-antioxidant constituents of Saururus chinensis” (J Nat Prod, 2001)", "test_system": "Plasma", "assay": "Antioxidant activity assessed as inhibition of LDL oxidation in human plasma", "format": "functional, cell-free", "data": [{"smiles": "C/C=C/c1ccc(O[C@@H](C)[C@@H](O)c2ccc(O)c(OC)c2)c(OC)c1", "note": "[MACHILIN D]", "values": [{"measurement": "IC50", "result": 2.9, "unit": "µM"}]}, {"smiles": "C/C=C/c1ccc(O[C@@H](C)[C@@H](O)c2ccc(OC)c(OC)c2)c(OC)c1", "note": "[VIROLIN]", "values": [{"measurement": "IC50", "result": 4.3, "unit": "µM"}]}, {"smiles": "CC(C)(Sc1cc(C(C)(C)C)c(O)c(C(C)(C)C)c1)Sc1cc(C(C)(C)C)c(O)c(C(C)(C)C)c1", "note": "[PROBUCOL]", "values": [{"measurement": "IC50", "result": 1.3, "unit": "µM"}]}]}
